Legend:
Assay type in all cases: in vivo, Japanese white rabbit
[1] = tested on: rabbit intraocular pressure; assay: Rabbit intraocular pressure reduction enhancing action, combination with timolol maleate (Test Example 6-2); details: 0.01 weight % 19-1 compound aqueous solution and/or timolol maleate (Timoptol), 50 μL; difference relative to the control group, 1, 2 and 4 hours
Procedure: As a test compound, the 19-1 compound was dissolved in physiological saline, and the solution was neutralized by addition of sodium hydroxide (pH 7.0 to 8.0) to prepare a 0.01 weight % aqueous solution (19-1 compound aqueous solution). As a drug for combination use, timolol maleate (trade name: Timoptol, Santen Pharmaceutical) was used as an adrenergic receptor β blocker, as the marketed formulation as it was.
A Japanese white rabbit having a body weight of about 2 kg was placed in a positioner and naturalized for one week before the experiment. An opthalmologic local anesthesant (Benoxil) was administered to both eyes, and then intraocular pressure before instillation was measured by using a tonometer (Classic 30, Solan). […] The intraocular pressure thereafter was measured for each group 1, 2 and 4 hours after the second administration of the test compound, and the difference of the measured values at each measurement time for the each group and the control group was considered an intraocular pressure reduction value of each group. The largest difference of the intraocular pressure values relative to the control group among those of the measured values of the measurement times was considered the maximum intraocular pressure reduction value (max ΔIOP) of each drug group.

[2] = tested on: rabbit normal intraocular pressure; assay: Intraocular pressure reducing action (Test Example 2); details: Oryctolagus cuniculus, topical; 3 mM aqueous solution, 50 μl to the left eye; measured after 2, 4 and 6 hours; read-out: intraocular pressure reducing degree (max ΔIOP / intraocular pressure value immediately before administration × 100)
Procedure: A Japanese white rabbit having a body weight of about 2 kg was placed in a positioner and naturalized for one week before the experiment. An opthalmologic local anesthesant (Benoxil) was administered to both eyes, and then intraocular pressure was measured by using a tonometer (Classic 30, Solan). A 3 mM aqueous solution of a test compound was administered in a volume of 50 μl to the left eye, and the right eye was not treated (control eye). The intraocular pressure values were measured for the left and right eyes immediately before, and 2, 4 and 6 hours after the administration of the aqueous solution of the test compound, and the difference of the measured values for the left and right eyes was considered an intraocular pressure reduction value of the test medicament at each measurement time. The largest difference of the values for the left and right eyes among the measured values at the measurement times (after 2, 4 and 6 hours) was considered the maximum intraocular pressure reduction value (max ΔIOP) of each test medicament. The intraocular pressure reducing degree representing the intraocular pressure reducing action of each test medicament was calculated according to the following formula. Since rabbits show significant daily variation of intraocular pressure, daily variation is added when change of intraocular pressure is measured over time, and the intraocular pressure reducing action may be overestimated. Therefore, we used this calculation method of intraocular pressure reduction value in order to minimize the influence of the variation. Intraocular pressure reducing degree (%)=(max ΔIOP/Intraocular pressure value immediately before administration)×100

[3] = tested on: rabbit intraocular pressure; assay: Rabbit intraocular pressure reduction enhancing action, combination use (Test Example 6-1); details: 50 μL, difference of left and right eyes, 2, 4 and 6 hours
Procedure: However, the effect is not limited to the 19-1 compound, and the ophthalmic solution concentration of the 19-1 compound is not limited to those used in this test example. Moreover, as for the test compound used for combination use, similar effect can be obtained also with the compounds of the present invention represented with the example numbers mentioned in Test Example 2.
As a test compound, the 19-1 compound was dissolved in physiological saline, and the solution was neutralized by addition of sodium hydroxide (pH 7.0 to 8.0) to prepare a 0.01 weight % aqueous solution (19-1 compound aqueous solution). As the drugs for combination use, isopropyl unoprostone (trade name: Rescula, Santen Pharmaceutical) was used as a prostaglandin-related drug, and brinzolamide hydrochloride (trade name: Azopt, Alcon Japan) was used as […], as the marketed formulations as they were.
A Japanese white rabbit having a body weight of about 2 kg was placed in a positioner and naturalized for one week before the experiment. An opthalmologic local anesthesant (Benoxil) was administered to both eyes, and then intraocular pressure before instillation was measured by using a tonometer (Classic 30, Solan). A test aqueous solution or the drug for combination use was administered to the left eye, and the right eye was not treated (control eye). The test groups consisted of (1) control group, (2) group instilled only with the 19-1 compound aqueous solution (single drug group 1), (3) group instilled only with the drug for combination use (single drug group 2), and (4) group instilled with the drug for combination use and the 19-1 compound aqueous solution (combination use group), and six rabbits were used for each group. As for the rabbits of these groups, 50 μL of physiological saline was first instilled to the control group, single drug group 1, and single drug group 2, and the drug for combination use was first instilled in the same volume to the combination use group. […] The intraocular pressure thereafter was measured for each group 2, 4 and 6 hours after the second administration of the test compound, and the difference of the measured values for the left and right eyes at each measurement time was considered an intraocular pressure reduction value of each group. The largest difference of the intraocular pressure values for the left and right eyes among those of the measured values of the measurement times was considered the maximum intraocular pressure reduction value (max ΔIOP) of each drug group.

N[C@H]1CCN(S(=O)(=O)c2cccc3cncc(Cl)c23)C1 [Example 19-1, (S)-3-Amino-1-(4-chloro-5-isoquinolinesulfonyl)pyrrolidine]
Max ΔIOP (maximum intraocular pressure reduction value), Table 4 [1]: 4.1 mmHg
inhibition in vivo at 3000 µM [2]: ≥ 20%
Max ΔIOP (maximum intraocular pressure reduction value), Table 2 ([3]; 0.01 weight % 19-1 compound aqueous solution and/or brinzolamide hydrochloride (Azopt)): 4.3 mmHg
Max ΔIOP (maximum intraocular pressure reduction value), Table 3 ([3]; 0.01 weight % 19-1 compound aqueous solution and/or isopropyl unoprostone (Rescula)): 4.3 mmHg
